Laboratory results published in patent publication US5792767A, “Bicyclic substituted hexahydrobenz [e] isoindole alpha-1 adrenergic antagonists” (priority 1995, dated 1998).
Where a name gives a salt, the structure may show the parent alone.

Assays:
[1] = target: T1, α-1A adrenoceptor (rat vas deferens) (Rattus norvegicus, UniProt P43140); assay: Functional antagonism of phenylephrine-induced contraction of rat vas deferens; assay type: cell-based; settings: vs phenylephrine-induced contraction, Schild plot; read-out: pA2 Rat Vas Deferens [α-1A] (converted)
T1 construct: PE-induced contraction of rat vas deferens; from tissue; host or cells: isolated rat vas deferens
T1 sequence (P43140 1-466): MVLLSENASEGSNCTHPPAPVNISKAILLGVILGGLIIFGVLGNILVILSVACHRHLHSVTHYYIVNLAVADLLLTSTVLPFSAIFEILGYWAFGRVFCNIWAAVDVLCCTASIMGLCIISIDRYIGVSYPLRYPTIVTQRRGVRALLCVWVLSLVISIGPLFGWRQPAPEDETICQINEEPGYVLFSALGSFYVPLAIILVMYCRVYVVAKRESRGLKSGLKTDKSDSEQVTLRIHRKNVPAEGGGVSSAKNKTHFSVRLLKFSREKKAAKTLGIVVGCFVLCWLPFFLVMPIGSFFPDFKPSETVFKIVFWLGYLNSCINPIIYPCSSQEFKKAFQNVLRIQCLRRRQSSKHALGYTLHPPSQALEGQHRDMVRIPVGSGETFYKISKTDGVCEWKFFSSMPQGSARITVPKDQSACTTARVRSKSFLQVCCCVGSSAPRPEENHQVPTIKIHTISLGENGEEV
Source text: (§1) Functional assays indicative of pharmacologically defined α-1 adrenoceptors were used to further characterize compounds. Inhibition of phenylephrine (PE)-induced contraction of canine prostate smooth muscle can be correlated with α-1A adrenoceptor activation. […] For each of these models, agonist dose response curves were repeated against increasing concentrations of test agent to derive a Schild plot [log ([…]) against log (molarity of test agent)] to determine the pA2.

[2] = target: T2, α-1A adrenoceptor (dog prostate); assay: Functional antagonism of phenylephrine-induced contraction of canine prostate strips; assay type: cell-based, dog (canine); settings: vs phenylephrine-induced contraction, Schild plot; read-out: pA2 Dog Prostate [α-1A] (converted)
T2 construct: from tissue; host or cells: canine prostate strips
T2 sequence (P35348 whole entry): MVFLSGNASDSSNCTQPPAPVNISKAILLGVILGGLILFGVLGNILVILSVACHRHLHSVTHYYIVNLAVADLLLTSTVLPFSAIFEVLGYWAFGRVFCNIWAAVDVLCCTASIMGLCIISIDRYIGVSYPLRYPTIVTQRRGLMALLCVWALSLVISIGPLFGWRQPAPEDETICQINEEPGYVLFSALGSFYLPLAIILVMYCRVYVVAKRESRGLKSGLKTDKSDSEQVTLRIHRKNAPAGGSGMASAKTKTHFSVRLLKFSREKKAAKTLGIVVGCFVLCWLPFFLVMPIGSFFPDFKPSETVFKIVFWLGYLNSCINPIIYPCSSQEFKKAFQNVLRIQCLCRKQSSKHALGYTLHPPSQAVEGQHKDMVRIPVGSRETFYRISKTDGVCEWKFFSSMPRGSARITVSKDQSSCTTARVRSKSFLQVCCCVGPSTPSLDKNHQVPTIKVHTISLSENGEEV
Source text: Canine prostate strips were used in vitro as previously described (Hieble, J. P., Boyce, A. J. and Caine, M., Fed. Proc., 45: 2609-2614 (1986)), to determine antagonist potencies against phenylephrine-induced contractions.
as §1

[3] = target: T3, α-1B adrenoceptor (rat spleen) (Rattus norvegicus, UniProt P15823); assay: Functional antagonism of phenylephrine-induced contraction of rat spleen; assay type: cell-based; settings: vs phenylephrine-induced contraction, Schild plot; for Kb: read-out: pA2 Rat Spleen [α-1B] (converted)
T3 construct: PE-induced contraction of rat spleen; from tissue; host or cells: isolated rat spleen
T3 sequence (P15823 1-515): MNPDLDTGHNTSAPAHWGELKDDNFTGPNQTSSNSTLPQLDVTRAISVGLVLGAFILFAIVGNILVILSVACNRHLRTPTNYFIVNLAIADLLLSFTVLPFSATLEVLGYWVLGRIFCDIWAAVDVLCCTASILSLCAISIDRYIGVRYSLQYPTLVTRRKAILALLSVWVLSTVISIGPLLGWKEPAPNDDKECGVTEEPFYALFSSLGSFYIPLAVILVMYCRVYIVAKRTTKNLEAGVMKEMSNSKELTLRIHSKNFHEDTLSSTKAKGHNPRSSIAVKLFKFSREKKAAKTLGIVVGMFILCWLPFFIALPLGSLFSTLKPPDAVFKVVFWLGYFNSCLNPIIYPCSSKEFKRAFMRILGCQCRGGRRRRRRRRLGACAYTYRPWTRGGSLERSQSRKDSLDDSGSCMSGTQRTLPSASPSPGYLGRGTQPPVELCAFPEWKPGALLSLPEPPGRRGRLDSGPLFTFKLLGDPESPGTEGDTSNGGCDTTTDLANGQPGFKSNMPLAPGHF
Source text: as §1

| Kb [1] | Kb [2] | Kb [3] | pA2 Rat Spleen [α-1B] [3] | Structure (SMILES) |
| --- | --- | --- | --- | --- |
| 3.98 nM | 0.692 nM | 6.92 nM |  | COc1cccc2c1CC[C@H]1CN(CCn3c(=O)[nH]c4c(C)csc4c3=O)C[C@@H]21 (relative stereo) [Example 2, hydrochloride] |
| 2.4 nM | 0.407 nM | 8.91 nM |  | COc1cccc2c1CC[C@H]1CN(CCn3c(=O)[nH]c4c(OC)cccc4c3=O)C[C@@H]21 (relative stereo) [Example 9, 3-[2-(cis-6-Methoxy-2,3,3a,4,5,9b-hexahydro-[1H]-benz[e]isoindol-1-yl)ethyl]-8-methoxy-quinazoline-2,4(1H,3H)-dione hydrochloride] |
| 6.46 nM | 0.692 nM | 4.37 nM |  | COc1cccc2c1CC[C@H]1CN(CCn3c(=O)[nH]c4ccsc4c3=O)C[C@@H]21 (relative stereo) [Example 5, hydrochloride] |
| 5.75 nM |  | 39.8 nM |  | COc1cc2ncn(CCN3C[C@@H]4CCc5c(OC)cccc5[C@@H]4C3)c(=O)c2cc1OC [Example 42, dihydrochloride] |
|  |  |  | 7.52 | COc1cc2[nH]c(=O)n(CCN3C[C@@H]4CCc5c(OC)cccc5[C@@H]4C3)c(=O)c2cc1OC [Example 39, hydrochloride] |
| 1.12 nM |  | 20.4 nM |  | COc1cc2ncn(CCN3C[C@@H]4CCc5c(OC)cccc5[C@@H]4C3)c(=O)c2cc1OC (relative stereo) [Example 33, 3-[2-(cis-6-Methoxy-2,3,3a,4,5,9b-hexahydro-[1H]-benz[e]isoindol-1-yl)ethyl]-6,7-dimethoxy-quinazoline-4(3H)-one dihydrochloride] |
|  |  | 129 nM |  | COc1cc2[nH]c(=O)n(CCN3C[C@@H]4CCc5c(OC)cccc5[C@@H]4C3)c(=O)c2cc1OC (relative stereo) [Example 10, hydrochloride] |
| 0.891 nM | 0.631 nM | 11.7 nM |  | COc1cccc2c1CC[C@H]1CN(CCn3c(=O)[nH]c4c(C)c(C)ccc4c3=O)C[C@@H]21 [Example 80, 3-[2-((3aR.9bR)cis-6-Methoxy-2,3,3a,4,5,9b-hexahydro-[1H-benz[e]isoindol-1-yl)ethyl]-7.8-dimethylquinazoline-2,4(1H,3H)-dione hydrochloride] |
| 0.479 nM | 0.398 nM | 2.95 nM |  | COc1cccc2c1CC[C@H]1CN(CCn3c(=O)[nH]c4c(C)c(OC)ccc4c3=O)C[C@@H]21 [Example 77, 3-[2-((3aR,9bR)cis-6-Methoxy-2,3,3a,4,59b-hexahydro-[1H]-benz[e]isoindol-1-yl)ethyl]-7-methoxy-8-methyl-quinazoline-2(1H,3H)-dione hydrochloride] |
| 3.02 nM | 0.457 nM | 5.5 nM |  | COc1cccc2c1CC[C@H]1CN(CCn3c(=O)[nH]c4cscc4c3=O)C[C@@H]21 (relative stereo) [Example 8, 3-[2-(cis-6-Methoxy-2,3,3a,4,5,9b-hexahydro-[1H]-benz[e]isoindol-1-yl)ethyl]-thieno[3,4d]pyrimidine-2,4(1H,3H)-dione hydrochloride] |
| 7.59 nM | 0.851 nM | 4.27 nM |  | COc1cccc2c1CC[C@H]1CN(CCn3c(=O)[nH]c4sccc4c3=O)C[C@@H]21 [Example 13, hydrochloride] |
| 4.68 nM | 2.09 nM | 12.3 nM |  | COc1cccc2c1CC[C@H]1CN(CCn3c(=O)[nH]c4sccc4c3=O)C[C@@H]21 (relative stereo) [Example 3, hydrochloride] |
|  | 0.575 nM |  |  | COc1cccc2c1CC[C@H]1CN(CCn3c(=O)[nH]c4cc(C(N)=O)ccc4c3=O)C[C@@H]21 [Example 46, hydrochloride] |
|  | 1.2 nM |  |  | COc1cccc2c1CC[C@H]1CN(CCn3c(=O)[nH]c4cc(Cl)ccc4c3=O)C[C@@H]21 (relative stereo) [Example 11, hydrochloride] |
|  | 0.708 nM |  |  | COC(=O)c1cc2[nH]c(=O)n(CCN3C[C@@H]4CCc5c(OC)cccc5[C@@H]4C3)c(=O)c2s1 [Example 60, hydrochloride] |
|  | 3.55 nM |  |  | CCOC(=O)c1ccc2c(=O)n(CCN3C[C@@H]4CCc5c(OC)cccc5[C@@H]4C3)c(=O)[nH]c2c1 [Example 71, hydrochloride] |

| Kb [1] | Kb [2] | Kb [3] | pA2 Rat Spleen [α-1B] [3] | Structure (SMILES) |
| --- | --- | --- | --- | --- |
|  | 0.891 nM |  |  | COc1cccc2c1CC[C@H]1CN(CCn3c(=O)[nH]c4c5c(ccc4c3=O)OCO5)C[C@@H]21 [Example 54, hydrochloride] |
| 8.51 nM | 11.2 nM | 120 nM |  | CCc1cccc2c1CC[C@H]1CN(CCn3c(=O)[nH]c4cc(OC)c(OC)cc4c3=O)C[C@@H]21 [Example 83, hydrochloride] |
|  | 1.05 nM |  |  | COc1cccc2c1CC[C@H]1CN(CCn3cnc4ccccc4c3=O)C[C@@H]21 (relative stereo) [Example 34, dihydrochloride] |
|  | 12.3 nM |  |  | COc1cccc2c1CC[C@H]1CN(CCn3c(=O)[nH]c4ccc([N+](=O)[O-])cc4c3=O)C[C@@H]21 (relative stereo) [Example 16, hydrochloride] |
|  | 4.9 nM |  |  | COc1cccc2c1CC[C@H]1CN(CCn3c(=O)oc4cc5c(cc4c3=O)OCO5)C[C@@H]21 [Example 55, hydrochloride] |
|  | 13.2 nM |  |  | COc1cccc2c1CC[C@H]1CN(CCn3c(=O)[nH]c4ncccc4c3=O)C[C@@H]21 (relative stereo) [Example 21, 3-[2-(cis-6-Methoxy-2,3 3a,4,5,9b-hexahydro-[1H]-benz[e]isoindol-1-yl)ethyl]-pyrido[2,3-d]pyrimidine-2,4(1H,3H)-dione hydrochloride] |
|  | 0.977 nM |  |  | COc1cccc2c1CC[C@H]1CN(CCn3c(=O)[nH]c4ccccc4c3=O)C[C@@H]21 [Example 79, hydrochloride] |
|  | 6.46 nM |  |  | COc1cccc2c1CC[C@H]1CN(CCn3c(=O)[nH]c4c(Cl)c(OC)c(Cl)cc4c3=O)C[C@@H]21 [Example 48, hydrochloride] |
|  | 1.15 nM |  |  | COc1cccc2c1CC[C@H]1CN(CCn3c(=O)[nH]c4c(C)c(C)cnc4c3=O)C[C@@H]21 [Example 66, dihydrochloride] |
|  | 0.589 nM |  |  | COc1cccc2c1CC[C@H]1CN(CCn3c(=O)c4ccccc4n(C)c3=O)C[C@@H]21 (relative stereo) [Example 26, hydrochloride] |
|  | 0.229 nM |  |  | COc1cccc2c1CC[C@H]1CN(CCn3c(=O)[nH]c4cc5c(cc4c3=O)OCCO5)C[C@@H]21 [Example 38, hydrochloride] |
|  | 0.24 nM |  |  | COc1cccc2c1CC[C@H]1CN(CCn3c(=O)[nH]c4cc5c(cc4c3=O)OCO5)C[C@@H]21 [Example 37, hydrochloride] |
| 8.51 nM | 21.4 nM | 6.76 nM |  | COc1cccc2c1CC[C@H]1CN(CCn3c(=O)[nH]c4cccc(C)c4c3=O)C[C@@H]21 (relative stereo) [Example 12, hydrochloride] |
|  | 12.3 nM |  |  | COc1cccc2c1CC[C@H]1CN(CCn3c(=O)[nH]c4scc(C)c4c3=O)C[C@@H]21 (relative stereo) [Example 4, hydrochloride] |
|  | 2.34 nM |  |  | COc1cccc2c1CC[C@H]1CN(CCn3c(=O)[nH]c4ccncc4c3=O)C[C@@H]21 (relative stereo) [Example 27, dihydrochloride] |
